This is an account of results in patent US20080132458A1, “Hypoxia-Activated Anti-Cancer Agents” (Threshold Pharmaceuticals, Inc., priority 2004, published 2008).

The data set deals with CD1 Mice. Briefly: toxicity in healthy mice: weight loss after a single intravenous dose, observed for seven days. The class given is in vivo, mouse. To be noted: single 20 mg/kg dose intravenously. The method, then: CD1 Mice were injected intravenously with a single 20 mg/kg dose each of compounds 2a, 2b, daunorubicin, and vehicle and observed for seven days, before euthanization. […] Thus, compounds of the invention appear to be less toxic than Daunorubicin when administered to healthy mice.

Consider `COc1cccc2c1C(=O)c1c(O)c3c(c(O)c1C2=O)C[C@@](O)(C(C)=O)C[C@@H]3O[C@H]1CC2[C@H](OCOCN2C(=O)OCc2cnc([N+](=O)[O-])n2C)[C@H](C)O1` (stereo partly drawn) [Compound 2a], for which the “weight loss as compared with the control group” value is “did not undergo significant weight loss”.

For the molecule `COc1cccc2c1C(=O)c1c(O)c3c(c(O)c1C2=O)C[C@@](O)(C(C)=O)C[C@@H]3O[C@H]1C[C@H](N)[C@H](O)[C@H](C)O1` [Daunorubicin, reference compound], the “weight loss as compared with the control group” value was “Significant weight loss”. As for `COc1cccc2c1C(=O)c1c(O)c3c(c(O)c1C2=O)C[C@@](O)(C(C)=O)C[C@@H]3O[C@H]1CC2[C@H](OCOCN2C(=O)OCc2ncc([N+](=O)[O-])n2C)[C@H](C)O1` (stereo partly drawn) [Compound 2b], the “weight loss as compared with the control group” value is recorded as “did not undergo significant weight loss”.
